Results published in US5840684A, “Glycopeptide antibiotic derivatives” (Eli Lilly and Company, priority 1995, dated 1998).
≈ marks a conversion by molar mass, not a printed value.

Tests used:
[1] = test system: Leuconostoc pseudomesenteroides; test: agar dilution MIC, lactic acid bacteria; type: cell-based; conditions: brain-heart infusion agar
[2] = test system: Staphylococcus haemolyticus 415; test: broth micro-dilution MIC; type: cell-based
Experimental: (§1) The formula I compounds have in vitro and in vivo activity against Gram-positive pathogenic bacteria. The MIC's were determined using a standard broth micro-dilution assay.

[3] = test system: Staphylococcus haemolyticus 105; test: broth micro-dilution MIC; type: cell-based
Experimental: as §1

Entercoccus faecium 180 = test: broth micro-dilution MIC; type: cell-based; conditions: Entercoccus faecium 180
Experimental: as §1

[4] = test system: Enterococcus gallinarum 245; test: broth micro-dilution MIC; type: cell-based; conditions: Enterococcus gallinarum 245
Experimental: as §1

Escherichia coli EC14 = test: broth micro-dilution MIC; type: cell-based
Experimental: as §1

[5] = test system: Streptococcus pneumoniae P1; test: broth micro-dilution MIC; type: cell-based
Experimental: as §1

Entercoccus faecium 2041 = test: broth micro-dilution MIC; type: cell-based; conditions: Entercoccus faecium 2041
Experimental: as §1

[6] = test system: Staphylococcus epidermidis 270; test: broth micro-dilution MIC; type: cell-based
Experimental: as §1

[7] = test system: Leuconostoc mesenteroides; test: agar dilution MIC, lactic acid bacteria; type: cell-based; conditions: Leuconostoc mesenteroides (mean of 4), brain-heart infusion agar
[8] = test system: vancomycin-resistant enterococci; test: broth micro-dilution, mean geometric MIC; type: cell-based, Enterococcus faecium and Enterococcus faecalis; conditions: enterococci, 24-hour incubation
Streptococcus pneumoniae = test: mouse protection, experimentally-induced infection; type: in vivo; conditions: mice infected with Streptococcus pneumoniae, two doses
[9] = test system: vancomycin-susceptible enterococci; test: broth micro-dilution, mean geometric MIC; type: cell-based, Enterococcus faecium and Enterococcus faecalis; conditions: enterococci, 24-hour incubation
[10] = test system: Entercoccus faecium 180-1; test: broth micro-dilution MIC; type: cell-based
Experimental: (§2) The MIC's were determined using a standard broth micro-dilution assay.

[11] = test system: Staphylococcus aureus X778; test: broth micro-dilution MIC; type: cell-based
Experimental: as §2

Entercoccus faecium 276 = test: broth micro-dilution MIC; type: cell-based
Experimental: as §2

[12] = test system: Staphylococcus aureus 446; test: broth micro-dilution MIC; type: cell-based
Experimental: as §2

[13] = test system: Staphylococcus aureus SA1199A; test: broth micro-dilution MIC; type: cell-based
Experimental: as §2

[14] = test system: Staphylococcus aureus 447; test: broth micro-dilution MIC; type: cell-based
Experimental: as §2

[15] = test system: Staphylococcus aureus SA1199; test: broth micro-dilution MIC; type: cell-based
Experimental: as §2

[16] = test system: Staphylococcus aureus X400; test: broth micro-dilution MIC; type: cell-based
Experimental: as §2

[17] = test system: Staphylococcus aureus 491; test: broth micro-dilution MIC; type: cell-based
Experimental: as §2

[18] = test system: Staphylococcus aureus 489; test: broth micro-dilution MIC; type: cell-based
Experimental: as §2

[19] = test system: Streptococcus pyogenes C203; test: broth micro-dilution MIC; type: cell-based
Experimental: as §2

Pediococcus acidilacti = test: agar dilution MIC, lactic acid bacteria; type: cell-based; conditions: Pediococcus acidilacti (mean of 10), brain-heart infusion agar
Stapylococcus aureus = test: mouse protection, experimentally-induced infection; type: in vivo; conditions: mice infected with Stapylococcus aureus, two doses
Pediococcus pentosaceus = test: agar dilution MIC, lactic acid bacteria; type: cell-based; conditions: Pediococcus pentosaceus (mean of 2), brain-heart infusion agar
Streptococcus pyogenes = test: mouse protection, experimentally-induced infection; type: in vivo; conditions: mice infected with Streptococcus pyogenes, two doses
Lactobacillus confusus = test: agar dilution MIC, lactic acid bacteria; type: cell-based; conditions: Lactobacillus confusus, brain-heart infusion agar
[20] = test system: Staphylococcus aureus S13E; type: cell-based
Experimental: as §2

[21] = test system: Staphylococcus aureus SA1199B; type: cell-based
Experimental: as §2

Leuconostoc citreum = test: agar dilution MIC, lactic acid bacteria; type: cell-based; conditions: brain-heart infusion agar
Leuconostoc lactis = test: agar dilution MIC, lactic acid bacteria; type: cell-based; conditions: Leuconostoc lactis (mean of 2), brain-heart infusion agar

Compound: CNC(CC(C)C)C(=O)NC1C(=O)NC(CC(N)=O)C(=O)NC2C(=O)NC3C(=O)NC(C(=O)NC(C(=O)O)c4cc(O)cc(O)c4-c4cc3ccc4O)C(OC3CC(C)(N)C(O)C(C)O3)c3ccc(c(Cl)c3)Oc3cc2cc(c3OC2OC(CO)C(O)C(O)C2OC2CC(C)(NCc3ccc(Oc4ccccc4)cc3)C(O)C(C)O2)Oc2ccc(cc2Cl)C1O (stereo not drawn) [Compound 4, p-phenoxybenzyl·A82846B]
- MIC [1]: 32 µg/mL (≈ 18 µM)
- MIC [2]: 0.5 µg/mL (≈ 0.282 µM)
- MIC [3]: 0.5 µg/mL (≈ 0.282 µM)
- MIC (Entercoccus faecium 180): 0.125 µg/mL (≈ 0.0704 µM)
- MIC [4]: ≤ 0.06 µg/mL
- MIC (Escherichia coli EC14): > 64 µg/mL
- MIC [5]: ≤ 0.06 µg/mL
- MIC (Entercoccus faecium 2041): ≤ 0.06 µg/mL
- MIC [6]: ≤ 0.06 µg/mL
- MIC [7]: 16 µg/mL (≈ 9.02 µM)
- mean geometric MIC, Vancomycin Resistant Strains [8]: 0.50 µg/mL
- ED50 (Streptococcus pneumoniae): 0.036 mg/kg/2
- mean geometric MIC, Vancomycin Sensitive Strains [9]: 0.062 µg/mL
- MIC [10]: ≤ 0.06 µg/mL
- MIC [11]: ≤ 0.06 µg/mL
- MIC (Entercoccus faecium 276): ≤ 0.06 µg/mL
- MIC [12]: ≤ 0.06 µg/mL
- MIC [13]: ≤ 0.06 µg/mL
- MIC [14]: 0.25 µg/mL (≈ 0.141 µM)
- MIC [15]: ≤ 0.06 µg/mL
- MIC [16]: ≤ 0.06 µg/mL
- MIC [17]: ≤ 0.06 µg/mL
- MIC [18]: ≤ 0.06 µg/mL
- MIC [19]: ≤ 0.06 µg/mL
- MIC (Pediococcus acidilacti): 7.5 µg/mL (≈ 4.23 µM)
- ED50 (Stapylococcus aureus): 0.36 mg/kg/2
- MIC (Pediococcus pentosaceus): 16 µg/mL (≈ 9.02 µM)
- ED50 (Streptococcus pyogenes): 0.012 mg/kg/2
- MIC (Lactobacillus confusus): 32 µg/mL (≈ 18 µM)
- MIC [20]: ≤ 0.06 µg/mL
- MIC [21]: ≤ 0.06 µg/mL
- MIC (Leuconostoc citreum): 128 µg/mL (≈ 72.1 µM)
- MIC (Leuconostoc lactis): 16 µg/mL (≈ 9.02 µM)

Compound: CNC(CC(C)C)C(=O)NC1C(=O)NC(CC(N)=O)C(=O)NC2C(=O)NC3C(=O)NC(C(=O)NC(C(=O)O)c4cc(O)cc(O)c4-c4cc3ccc4O)C(OC3CC(C)(N)C(O)C(C)O3)c3ccc(c(Cl)c3)Oc3cc2cc(c3OC2OC(CO)C(O)C(O)C2OC2CC(C)(NCc3ccc(OCc4ccccc4)cc3)C(O)C(C)O2)Oc2ccc(cc2Cl)C1O (stereo not drawn) [Compound 5]
- MIC [1]: 16 µg/mL (≈ 8.95 µM)
- MIC [2]: 1 µg/mL (≈ 0.559 µM)
- MIC [3]: 2 µg/mL (≈ 1.12 µM)
- MIC (Entercoccus faecium 180): ≤ 0.06 µg/mL
- MIC [4]: ≤ 0.06 µg/mL
- MIC (Escherichia coli EC14): > 64 µg/mL
- MIC [5]: ≤ 0.06 µg/mL
- MIC (Entercoccus faecium 2041): ≤ 0.06 µg/mL
- MIC [7]: 8 µg/mL (≈ 4.47 µM)
- mean geometric MIC, Vancomycin Resistant Strains [8]: 0.50 µg/mL
- ED50 (Streptococcus pneumoniae): 0.036 mg/kg/2
- mean geometric MIC, Vancomycin Sensitive Strains [9]: 0.072 µg/mL
- MIC [10]: ≤ 0.06 µg/mL
- MIC [11]: 0.5 µg/mL (≈ 0.28 µM)
- MIC (Entercoccus faecium 276): ≤ 0.06 µg/mL
- MIC [12]: 1 µg/mL (≈ 0.559 µM)
- MIC [13]: ≤ 0.06 µg/mL
- MIC [14]: 0.5 µg/mL (≈ 0.28 µM)
- MIC [15]: 1 µg/mL (≈ 0.559 µM)
- MIC [17]: 0.5 µg/mL (≈ 0.28 µM)
- MIC [19]: ≤ 0.06 µg/mL
- MIC (Pediococcus acidilacti): 2.8 µg/mL (≈ 1.57 µM)
- ED50 (Stapylococcus aureus): 0.13 mg/kg/2
- MIC (Pediococcus pentosaceus): 8.0 µg/mL (≈ 4.47 µM)
- ED50 (Streptococcus pyogenes): 0.039 mg/kg/2
- MIC (Lactobacillus confusus): 16 µg/mL (≈ 8.95 µM)
- MIC [20]: 1 µg/mL (≈ 0.559 µM)
- MIC [21]: ≤ 0.06 µg/mL
- MIC (Leuconostoc citreum): 64 µg/mL (≈ 35.8 µM)
- MIC (Leuconostoc lactis): 8.0 µg/mL (≈ 4.47 µM)

Compound: CNC(CC(C)C)C(=O)NC1C(=O)NC(CC(N)=O)C(=O)NC2C(=O)NC3C(=O)NC(C(=O)NC(C(=O)O)c4cc(O)cc(O)c4-c4cc3ccc4O)C(OC3CC(C)(N)C(O)C(C)O3)c3ccc(c(Cl)c3)Oc3cc2cc(c3OC2OC(CO)C(O)C(O)C2OC2CC(C)(NCc3ccc(C=Cc4ccccc4)cc3)C(O)C(C)O2)Oc2ccc(cc2Cl)C1O (stereo not drawn) [Compound 29]
- MIC [1]: 16 µg/mL (≈ 8.97 µM)
- MIC [2]: 1 µg/mL (≈ 0.56 µM)
- MIC [3]: 4 µg/mL (≈ 2.24 µM)
- MIC (Entercoccus faecium 180): 0.25 µg/mL (≈ 0.14 µM)
- MIC [4]: 0.25 µg/mL (≈ 0.14 µM)
- MIC (Entercoccus faecium 2041): 0.25 µg/mL (≈ 0.14 µM)
- MIC [6]: 0.5 µg/mL (≈ 0.28 µM)
- MIC [7]: 6.7 µg/mL (≈ 3.75 µM)
- mean geometric MIC, Vancomycin Resistant Strains [8]: 0.21 µg/mL
- ED50 (Streptococcus pneumoniae): 0.054 mg/kg/2
- mean geometric MIC, Vancomycin Sensitive Strains [9]: 0.031 µg/mL
- MIC [10]: ≤ 0.06 µg/mL
- MIC [11]: ≤ 0.06 µg/mL
- MIC (Entercoccus faecium 276): 0.25 µg/mL (≈ 0.14 µM)
- MIC [12]: 1 µg/mL (≈ 0.56 µM)
- MIC [13]: ≤ 0.06 µg/mL
- MIC [14]: 0.25 µg/mL (≈ 0.14 µM)
- MIC [15]: 0.25 µg/mL (≈ 0.14 µM)
- MIC [16]: 0.25 µg/mL (≈ 0.14 µM)
- MIC [17]: 0.25 µg/mL (≈ 0.14 µM)
- MIC (Pediococcus acidilacti): 4.0 µg/mL (≈ 2.24 µM)
- ED50 (Stapylococcus aureus): 0.088 mg/kg/2
- MIC (Pediococcus pentosaceus): 8.0 µg/mL (≈ 4.48 µM)
- ED50 (Streptococcus pyogenes): 0.1 mg/kg/2
- MIC (Lactobacillus confusus): 8 µg/mL (≈ 4.48 µM)
- MIC [20]: 1 µg/mL (≈ 0.56 µM)
- MIC [21]: 0.25 µg/mL (≈ 0.14 µM)
- MIC (Leuconostoc citreum): 32 µg/mL (≈ 17.9 µM)
- MIC (Leuconostoc lactis): 5.7 µg/mL (≈ 3.19 µM)

Compound: CNC(CC(C)C)C(=O)NC1C(=O)NC(CC(N)=O)C(=O)NC2C(=O)NC3C(=O)NC(C(=O)NC(C(=O)O)c4cc(O)cc(O)c4-c4cc3ccc4O)C(OC3CC(C)(N)C(O)C(C)O3)c3ccc(c(Cl)c3)Oc3cc2cc(c3OC2OC(CO)C(O)C(O)C2OC2CC(C)(NCc3ccc(-c4ccc(-c5ccccc5)cc4)cc3)C(O)C(C)O2)Oc2ccc(cc2Cl)C1O (stereo not drawn) [Compound 36]
- MIC [1]: 32 µg/mL (≈ 17.4 µM)
- MIC [2]: 8 µg/mL (≈ 4.36 µM)
- MIC [3]: 4 µg/mL (≈ 2.18 µM)
- MIC (Entercoccus faecium 180): 0.25 µg/mL (≈ 0.136 µM)
- MIC (Entercoccus faecium 2041): 1 µg/mL (≈ 0.545 µM)
- MIC [6]: 2 µg/mL (≈ 1.09 µM)
- MIC [7]: 16 µg/mL (≈ 8.72 µM)
- mean geometric MIC, Vancomycin Resistant Strains [8]: 0.25 µg/mL
- ED50 (Streptococcus pneumoniae): 0.31 mg/kg/2
- mean geometric MIC, Vancomycin Sensitive Strains [9]: 0.21 µg/mL
- MIC [10]: ≤ 0.06 µg/mL
- MIC [11]: 2 µg/mL (≈ 1.09 µM)
- MIC (Entercoccus faecium 276): 2 µg/mL (≈ 1.09 µM)
- MIC [12]: 8 µg/mL (≈ 4.36 µM)
- MIC [14]: 2 µg/mL (≈ 1.09 µM)
- MIC [15]: 4 µg/mL (≈ 2.18 µM)
- MIC [16]: 4 µg/mL (≈ 2.18 µM)
- MIC [17]: 1 µg/mL (≈ 0.545 µM)
- MIC [18]: 2 µg/mL (≈ 1.09 µM)
- MIC (Pediococcus acidilacti): 9.2 µg/mL (≈ 5.01 µM)
- ED50 (Stapylococcus aureus): 0.19 mg/kg/2
- MIC (Pediococcus pentosaceus): 16 µg/mL (≈ 8.72 µM)
- ED50 (Streptococcus pyogenes): 0.28 mg/kg/2
- MIC (Lactobacillus confusus): 32 µg/mL (≈ 17.4 µM)
- MIC [20]: 2 µg/mL (≈ 1.09 µM)
- MIC [21]: 4 µg/mL (≈ 2.18 µM)
- MIC (Leuconostoc citreum): 32 µg/mL (≈ 17.4 µM)
- MIC (Leuconostoc lactis): 16 µg/mL (≈ 8.72 µM)
